The term IC50 denotes the concentration at which inhibition is half-maximal. High values mean weaker potency, low ones greater potency. The EC50 is the concentration that produces a half-maximal response. Low values mean an effect from little substance, high ones a need for much substance.

For test [1], the target named is DCAF15 (Homo sapiens, UniProt Q66K64). The test is described as follows: HTRF competition assay, binary interaction between compounds and DCAF15. The test is classed as binding. The following applies: competition with Alexa Fluor 647 tracer, His-tagged DCAF15 complex. In short, it runs like this: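 Compounds, 3-fold serially diluted in DMSO, competed with an Alexa Fluor 647 tracer (612 nM, 2.04× stock) for His-tagged DCAF15 complex (32 nM, 4× stock) premixed 15 min with anti-6His-Eu cryptate. Buffer was 25 mM HEPES pH 7.5, 100 mM NaCl, 0.5 mM TCEP. After 1 h at RT, the 615/666 nm ratio gave titration curves.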

The target in test [2] is DCAF15/RBM39 (Homo sapiens, UniProt Q14498+Q66K64). The test is described as follows: AlphaLISA compound-induced DCAF15-RBM39 ternary complex formation. It is filed as binding. The following applies: His-tagged DCAF15 complex and biotin-carrying RBM39. In short, it runs like this:
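Compounds, serially diluted 3-fold from 2 mM DMSO stocks, were incubated 1 h at room temperature with His-tagged DCAF15 complex and biotinylated RBM39 (mixture at 408 nM each, 2.04×). The buffer was 50 mM HEPES pH 7.5, 100 mM NaCl, 2 mM MgCl2, 2 mM TCEP. Ni-chelate acceptor and streptavidin donor beads were added sequentially (1–2 h each), and the AlphaLISA signal was titrated.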
(In Alpha technology, singlet oxygen from a donor bead excites a nearby acceptor bead.)

As for `O=C(c1ccc(S(=O)(=O)Nc2ccc(Cl)c3c(Cl)c[nH]c23)c(F)c1)N1CC(N2CCc3ccccc32)C1` [Compound 215], the IC50 in test [1] was 10000 to 100000 nM. For the same compound, the EC50 in test [2] is 1000 to 10000 nM.
The corresponding values for `O=S(=O)(Nc1ccc(Cl)c2c(Cl)c[nH]c12)c1ccc(Oc2ccc(F)cc2)c(Br)c1` [Compound 234] are above 100000 nM and 1000 to 10000 nM.
The corresponding values for `Cc1ccc(CCNC(=O)c2cccc(S(=O)(=O)Nc3ccc(Cl)c4c(Cl)c[nH]c34)c2F)o1` [Compound 198] are 1000 to 10000 nM and 1000 to 10000 nM.
In test [1], `CN1CC2(CC(Oc3ccc(S(=O)(=O)Nc4ccc(Cl)c5c(Cl)c[nH]c45)cc3)C2)C1` [Compound 24, N-(3,4-dichloro-1H-indol-7-yl)-4-((2-methyl-2-azaspiro[3.3]heptan-6-yl)oxy)benzenesulfonamide] displayed an IC50 of 1000 to 10000 nM. In test [2], this compound had an EC50 below 1000 nM.
The corresponding values for `CN1CCN(CCCOc2cccc(S(=O)(=O)Nc3ccc(Cl)c4c(Cl)c[nH]c34)c2)CC1` [Compound 104] are 10000 to 100000 nM and below 1000 nM.
The like results for `Cc1ccccc1Oc1ccccc1CNC(=O)c1cccc(S(=O)(=O)Nc2ccc(Cl)c3c(Cl)c[nH]c23)c1F` [Compound 172] were, in that order, 1000 to 10000 nM and 1000 to 10000 nM.
For `CN1CC(CCNC(=O)c2cccc(S(=O)(=O)Nc3ccc(Cl)c4c(Cl)c[nH]c34)c2F)C1` [Compound 192], the IC50 in test [1] was below 1000 nM. In addition, the EC50 in test [2] was below 1000 nM.
`COCCOCCCNC(=O)c1ccc(S(=O)(=O)Nc2ccc(Cl)c3c(Cl)c[nH]c23)c(F)c1` [Compound 203]: the IC50 in test [1] was in the range of 1000 to 10000 nM. In test [2], this compound returned an EC50 below 1000 nM.
`O=C(NCCOC1CCS(=O)(=O)CC1)c1ccc(S(=O)(=O)Nc2ccc(Cl)c3c(Cl)c[nH]c23)c(F)c1` [Compound 189] came in with an IC50 in test [1] below 1000 nM. In addition, in test [2], the EC50 was below 1000 nM.
With `O=S(=O)(Nc1ccc(Cl)c2c(Cl)c[nH]c12)c1ccc(OCCC[C@@H]2CCCN2)cc1` [Compound 97], in test [1], the IC50 was 1000 to 10000 nM. The EC50 in test [2] was below 1000 nM.
Take `O=S(=O)(Nc1ccc(Cl)c2c(Cl)c[nH]c12)c1ccc(OCc2ccc3c(c2)CNC3)cc1` [Compound 66]: the IC50 in test [1] lay within 1000 to 10000 nM. The compound further gave an EC50 in test [2] below 1000 nM.
The like results for `N[C@H]1CC[C@H](Oc2ccc(S(=O)(=O)Nc3ccc(Cl)c4c(Cl)c[nH]c34)cc2)CC1` [Compound 5] were, in that order, 1000 to 10000 nM and below 1000 nM.
On to `Cn1ncnc1COc1ccc(S(=O)(=O)Nc2ccc(Cl)c3c(Cl)c[nH]c23)cc1` [Compound 67], for which, in test [1], the IC50 fell in the range of 1000 to 10000 nM. The EC50 in test [2] is below 1000 nM.
Compound `CC(C)CCOc1ccc(S(=O)(=O)Nc2ccc(Cl)c3c(Cl)c[nH]c23)cc1` [Compound 230] registered an IC50 in test [1] of 1000 to 10000 nM. This compound showed an EC50 in test [2] of 1000 to 10000 nM.
For the compound `O=S(=O)(Nc1ccc(Cl)c2c(Cl)c[nH]c12)c1ccc(OCC2COC2)cc1` [Compound 40], in test [1], the IC50 is above 100000 nM. In addition, the EC50 in test [2] is below 1000 nM.
The corresponding values for `O=C(N[C@@H]1CCC[C@@H](Oc2ccc(S(=O)(=O)Nc3ccc(Cl)c4c(Cl)c[nH]c34)cc2)C1)OCc1ccccc1` [Compound 13] are above 100000 nM and above 100000 nM.
`O=S(=O)(Nc1ccc(Cl)c2c(Cl)c[nH]c12)c1ccc(Oc2ccccc2)c(Cl)c1` [Compound 34] gave an IC50 in test [1] above 100000 nM. In test [2], this compound came in with an EC50 of 1000 to 10000 nM.
`O=C(NC[C@H]1Cc2ccccc21)c1cccc(S(=O)(=O)Nc2ccc(Cl)c3c(Cl)c[nH]c23)c1F` [Compound 164]: in test [1], the IC50 was 1000 to 10000 nM. In test [2], this compound had an EC50 of 1000 to 10000 nM.
Take `NC(=O)c1cc(Cl)cc(S(=O)(=O)Nc2ccc(Cl)c3c(Cl)c[nH]c23)c1` [Compound 235]: the IC50 in test [1] was 1000 to 10000 nM. In test [2], this compound displayed an EC50 of 1000 to 10000 nM.
Take `Cc1nc(-c2ccc(COc3cccc(S(=O)(=O)Nc4ccc(Cl)c5c(Cl)c[nH]c45)c3)cc2)no1` [Compound 63]: the IC50 in test [1] is above 100000 nM. The same compound came in with an EC50 in test [2] of 1000 to 10000 nM.
